From ChEMBL document CHEMBL5500363, “Discovery of novel ocotillol derivatives modulating glucocorticoid receptor/NF-κB signaling for the treatment of sepsis” (Eur J Med Chem, 2024)
pIC50: −log10 of the molar value. Calls of active or inactive are those of the source. The rule behind the calls is not given here.

Key:
[1] = Cytotoxicity against mouse RAW264.7 cells assessed as cell viability at 40 uM incubated for 24 hrs by MTT assay relative to control; type: toxicity, cell-based; settings: read-out: Activity
Mus musculus [2] = assay: Anti-septic activity in LPS-induced sepsis BALB/c mouse assessed as reduction in serum IL-6 level at 7.5 to 30 mg/kg administered via gavage for 3 days followed by LPS treatment for 6 hrs by ELISA; type: functional, organism-based; settings: dose 7.5-30 mg/kg, time 78.0 hrs
RAW264.7 [3] = assay: Anti-inflammatory activity in mouse RAW264.7 cells assessed as inhibition of LPS-induced IL-6 production pretreated for 2 hrs followed by LPS stimulation for 24 hrs by ELISA; type: functional, cell-based; settings: dose 5-20 µM
Mus musculus [4] = assay: Anti-septic activity in LPS-induced sepsis BALB/c mouse assessed as body weight recovery at 7.5 to 30 mg/kg administered via gavage for 3 days followed by LPS treatment for 6 hrs; type: functional, organism-based; settings: dose 7.5-30 mg/kg, time 78.0 hrs
Mus musculus [5] = assay: Upregulation of glucocorticoid receptor expression in liver of LPS-induced sepsis BALB/c mouse model at 7.5 to 30 mg/kg administered via gavage for 3 days followed by LPS treatment for 6 hrs by Western blot analysis; type: functional, organism-based; settings: dose 7.5-30 mg/kg, time 78.0 hrs
RAW264.7 [6] = assay: Inhibition of LPS-induced NO production in mouse RAW264.7 cells pretreated for 2 hrs followed by LPS stimulation for 24 hrs by Griess assay; type: functional, cell-based
RAW264.7 [7] = assay: Downregulation of glucocorticoid receptor in mouse RAW264.7 cells at 20 uM incubated for 24 hrs by Western blot analysis; type: functional, cell-based
RAW264.7 [8] = assay: Effect on KLF9 mRNA expression in mouse RAW264.7 cells by qPCR analysis; type: functional, cell-based
[9] = biological target: T1, Glucocorticoid receptor (Mus musculus) (UniProt P06537); assay: Binding affinity to glucocorticoid receptor in mouse RAW264.7 cells assessed as thermal stability by measuring protein degradation at 47 degreeC at 10 to 40 uM pretreated for 24 hrs followed by heat exposure for 3 mins and subsequently incubated at room temperature for 3 mins by CETSA; type: cell-based; settings: dose 10-40 µM, time 1446.0 min
T1 sequence (whole entry): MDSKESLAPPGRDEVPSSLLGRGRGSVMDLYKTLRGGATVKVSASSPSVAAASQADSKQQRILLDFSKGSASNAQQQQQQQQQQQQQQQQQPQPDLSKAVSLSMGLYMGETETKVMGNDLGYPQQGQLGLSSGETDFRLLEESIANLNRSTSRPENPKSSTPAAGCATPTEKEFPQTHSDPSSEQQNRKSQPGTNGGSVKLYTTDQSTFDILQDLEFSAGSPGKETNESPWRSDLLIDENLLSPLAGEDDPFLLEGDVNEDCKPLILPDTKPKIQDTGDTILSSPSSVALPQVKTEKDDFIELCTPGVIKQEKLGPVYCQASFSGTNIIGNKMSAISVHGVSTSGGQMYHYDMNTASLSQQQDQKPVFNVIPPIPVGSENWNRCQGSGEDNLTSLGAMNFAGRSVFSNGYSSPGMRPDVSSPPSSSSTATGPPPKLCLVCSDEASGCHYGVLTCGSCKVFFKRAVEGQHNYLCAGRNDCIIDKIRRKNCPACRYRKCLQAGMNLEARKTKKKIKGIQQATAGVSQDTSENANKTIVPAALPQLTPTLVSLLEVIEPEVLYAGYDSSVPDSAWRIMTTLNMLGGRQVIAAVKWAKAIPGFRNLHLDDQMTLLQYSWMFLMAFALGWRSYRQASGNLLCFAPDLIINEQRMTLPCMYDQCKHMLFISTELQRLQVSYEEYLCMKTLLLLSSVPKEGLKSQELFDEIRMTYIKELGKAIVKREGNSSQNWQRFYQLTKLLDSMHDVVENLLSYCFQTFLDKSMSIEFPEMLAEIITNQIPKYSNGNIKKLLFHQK

Mus musculus [10] = assay: Anti-septic activity in LPS-induced sepsis BALB/c mouse assessed as reduction in serum AST level at 30 mg/kg administered via gavage for 3 days followed by LPS treatment for 6 hrs; type: functional, organism-based; settings: time 78.0 hrs
Mus musculus [11] = assay: Downregulation of p65 phosphorylation in liver of LPS-induced sepsis BALB/c mouse model at 7.5 to 30 mg/kg administered via gavage for 3 days followed by LPS treatment for 6 hrs by Western blot analysis; type: functional, organism-based; settings: dose 7.5-30 mg/kg, time 78.0 hrs
RAW264.7 [12] = assay: Inhibition of LPS-induced NO production in mouse RAW264.7 cells at 20 uM pretreated for 2 hrs followed by LPS stimulation for 24 hrs by Griess assay relative to control; type: functional; settings: time 26 hrs
Mus musculus [13] = assay: Anti-septic activity in LPS-induced sepsis BALB/c mouse assessed as reduction in serum CRP level at 7.5 to 30 mg/kg administered via gavage for 3 days followed by LPS treatment for 6 hrs; type: functional, organism-based; settings: dose 7.5-30 mg/kg, time 78.0 hrs
RAW264.7 [14] = assay: Anti-inflammatory activity in mouse RAW264.7 cells assessed as decrease in LPS-induced I-kappaB-alpha phosphorylation at 20 uM pretreated for 2 hrs followed by LPS stimulation for 24 hrs by Western blot analysis; type: functional, cell-based; settings: time 26.0 hrs
RAW264.7 [15] = assay: Inhibition of LPS-induced NO production in mouse RAW264.7 cells at 5 uM pretreated for 2 hrs followed by LPS stimulation for 24 hrs by Griess assay relative to control; type: functional; settings: time 26 hrs
[16] = biological target: T1, Glucocorticoid receptor (Mus musculus); assay: Binding affinity to glucocorticoid receptor in mouse RAW264.7 cells assessed as increase in thermal stability at 47 to 51 degreeC at 40 uM pretreated for 24 hrs followed by heat exposure for 3 mins and subsequently incubated at room temperature for 3 mins by CETSA; type: cell-based; settings: time 1446.0 min
[17] = biological target: T1, Glucocorticoid receptor (Mus musculus); assay: Modulation of glucocorticoid receptor in LPS-treated mouse RAW264.7 cells assessed as protein translocation from cytoplasm to nucleus at 20 uM pretreated for 12 hrs followed by LPS stimulation for 2 hrs by immunofluorescence based analysis; type: subcellular; settings: filed as modulator, time 14.0 hrs
Mus musculus [18] = assay: Upregulation of glucocorticoid receptor expression in liver of LPS-induced sepsis BALB/c mouse model at 7.5 to 30 mg/kg administered via gavage for 3 days followed by LPS treatment for 6 hrs by immunofluorescence analysis; type: functional, organism-based; settings: dose 7.5-30 mg/kg, time 78.0 hrs
RAW264.7 [19] = assay: Anti-inflammatory activity in mouse RAW264.7 cells assessed as inhibition of LPS-induced TNF-alpha production pretreated for 2 hrs followed by LPS stimulation for 24 hrs by ELISA; type: functional, cell-based; settings: dose 5-20 µM, time 26.0 hrs
RAW264.7 [20] = assay: Upregulation of glucocorticoid receptor mRNA expression in LPS-treated mouse RAW264.7 cells incubated for 24 hrs by qRT-PCR analysis; type: functional, cell-based
[21] = biological target: T1, Glucocorticoid receptor (Mus musculus); assay: Binding affinity to glucocorticoid receptor in mouse RAW264.7 cells assessed as increase in thermal stability at 47 degreeC pretreated for 24 hrs followed by heat exposure for 3 mins and subsequently incubated at room temperature for 3 mins by CETSA; type: cell-based; settings: dose 2.5-40 µM, time 1446.0 min
Mus musculus [22] = assay: Anti-septic activity in LPS-induced sepsis BALB/c mouse assessed as reduction in pathological change in kidney at 7.5 to 30 mg/kg administered via gavage for 3 days followed by LPS treatment for 6 hrs by H and E staining based analysis; type: functional, organism-based; settings: dose 7.5-30 mg/kg, time 78.0 hrs
RAW264.7 [23] = assay: Anti-inflammatory activity in mouse RAW264.7 cells assessed as decrease in LPS-induced p65 phosphorylation at 20 uM pretreated for 2 hrs followed by LPS stimulation for 24 hrs by Western blot analysis; type: functional, cell-based; settings: time 26.0 hrs

SMILES: CC(C)(C)OC(=O)CCC(=O)Nc1nc2c(s1)C[C@]1(C)[C@H]3C[C@@H](O)[C@@H]4C([C@]5(C)CC[C@@H](C(C)(C)O)O5)CC[C@@]4(C)[C@]3(C)CC[C@H]1C2(C)C (stereo partly drawn)
- viability at 24 h, 40 µM [1]: > 90%
- Activity (Mus musculus [2]): Active
- inhibition (RAW264.7 [3]): Dose-Dependent Effect
- Activity (Mus musculus [4]): Active
- Activity (Mus musculus [5]): Active
- pIC50 (RAW264.7 [6]): 5.47
- Activity (RAW264.7 [7]): inactive
- Activity (RAW264.7 [8]): inactive
- Activity [9]: Active
- Activity (Mus musculus [10]): Active
- Activity (Mus musculus [11]): Active
- inhibition at 20 µM (RAW264.7 [12]): 86%
- Activity (Mus musculus [13]): Active
- Activity (RAW264.7 [14]): Active
- inhibition at 5 µM (RAW264.7 [15]): 30.3%
- Activity [16]: Active
- Activity [17]: Active
- Activity (Mus musculus [18]): Active
- inhibition (RAW264.7 [19]): Dose-Dependent Effect
- Activity (RAW264.7 [20]): Active
- Activity [21]: Dose-Dependent Effect
- Activity (Mus musculus [22]): Active
- Activity (RAW264.7 [23]): Active
